# Results taken from patent US20150044346A1, “USE OF OXAZOLINES AS AROMA/FLAVOUR PRECURSORS” (NESTEC S.A., priority 2012, published 2015).
# How the values were obtained:
# [1] = Release of Strecker aldehyde from 3-oxazoline precursor stirred in water at 37° C. (stable isotope dilution, HS-GC-MS / GC-MS); type: physicochemical; details: 5 min after addition of water at 37° C.
# [2] = Impact of pH value on release of Strecker aldehyde from 3-oxazoline precursor in buffer solution at 37° C.; type: physicochemical
# Method: (§1) 2-(2-Methylpropyl)-5-methyl-3-oxazoline (dissolved in pentane/diethyl ether; 2 mL) was added to ethanol (0.5 mL). The pentane/diethyl ether was carefully evaporated, and finally made up to 5 mL with ethanol. […] A control experiment was performed with 2-(2-methylpropyl)-5-methyl-3-oxazoline and the respective standard without adding the respective buffer solution. For headspace measurements, the samples were directly subjected to HS-GC-MS. For liquid measurements, the samples were cooled in an ice bath and extracted with diethyl ether (3×15 mL; liquid-liquid extraction). The organic phases were combined, dried over anhydrous sodium sulphate, and the solvent was distilled off (20° C., 500 mbar) to about 4 mL. An aliquot (2 μL) was used for the stable isotope dilution assays ((GC-) GC-MS).
# as §1, with “2-Methylphenyl-5-methyl-3-oxazoline” for “2-(2-Methylpropyl)-5-methyl-3-oxazoline”, “2-methylphenyl-5-methyl-3-oxazoline” for “2-(2-methylpropyl)-5-methyl-3-oxazoline”
# [3] = Sensory panel, malty aroma of cocoa-malt-based beverage spiked with oxazoline; details: cocoa-malt-based beverage 7.5 g + 10 mg oxazoline
# Method: (§2) Cocoa-malt-based beverage (7.5 g) was weighted into a Pyrex bottle. The product was spiked with 2-(2-methylpropyl)-5-methyl-3-oxazoline (10 mg) and the sample was then reconstituted in 100 mL of cold (10° C.) or warm (60° C.) semi-skimmed milk. Samples without addition of oxazoline were prepared analogously and used as references. The impact of the addition of the oxazoline on the intensity of malty aroma (characteristic aroma of 3-methylbutanal) was evaluated by a sensory panel. Comparative profiling procedure was conducted using an 11-point scale ranging from −5 to +5. Assessors were asked to score the sample containing oxazoline against the reference. Reference product containing no added oxazoline was arbitrary positioned on the zero of the scale.
# [4] = Sensory panel, malty aroma of coffee mix beverage spiked with oxazoline; details: coffee mix powder 16 g + 10 mg oxazoline, 130 ml hot (80° C.) water; scale −5 to +5, reference at zero
# Method: as §2
# (§3) Coffee mix powder (16 g) was weighted into a Pyrex bottle. The product was spiked with 2-(2-methylpropyl)-5-methyl-3-oxazoline (10 mg) and the sample was then reconstituted in 130 ml of hot (80° C.) water. Sample without addition of oxazoline was prepared analogously and used as reference. The impact of the addition of the oxazoline on the intensity of malty aroma (characteristic aroma of 3-methylbutanal) was evaluated by a sensory panel as described in example 9. […] To further substantiate the sensory results, the sample was analyzed by SPME-GCxGC-TOFMS.
# [5] = SPME-GCxGC-TOFMS of 3-methylbutanal in coffee mix spiked with oxazoline; type: physicochemical
# Method: as §3
# The results (Table 7) indicate that the conversion of oxazoline to Strecker aldehyde is very high and reaches 77% in the analysed coffee mix sample (incubation 60° C./15 min).
# [6] = Sensory panel, malty aroma of cereal based pap spiked with oxazoline; details: cereal powder 12.5 g + 10 mg oxazoline, scale −5 to +5
# Method: as §2
# Cereal powder (12.5 g) was weighted into a plastic dish. The product was spiked with 2-(2-methylpropyl)-5-methyl-3-oxazoline (10 mg) and the sample was then reconstituted in 100 ml of warm (60° C.) water or semi-skimmed milk. Sample without addition of oxazoline was prepared analogously and used as reference. The impact of the addition of the oxazoline on the intensity of malty aroma (characteristic aroma of 3-methylbutanal) was evaluated by a sensory panel as described in example 9.
smiles,measurement,setting,value
CC(C)CC1N=CC(C)O1 (stereo not drawn) [2-(2-methylpropyl)-5-methyl-3-oxazoline],3-methylbutanal released / precursor converted to Strecker aldehyde,[1],about 75%
same,3-methylbutanal (mol %) generated from precursor,"[2]; pH 5, Control without addition of buffer solution",0.5 mol %
same,3-methylbutanal (mol %) generated from precursor,"[2]; pH 5 buffer, 10 min, 37° C.",95.1 mol %
same,3-methylbutanal (mol %) generated from precursor,"[2]; pH 5 buffer, 60 min, 37° C.",98.9 mol %
same,3-methylbutanal (mol %) generated from precursor,"[2]; pH 7, Control without addition of buffer solution",0.3 mol %
same,3-methylbutanal (mol %) generated from precursor,"[2]; pH 7 buffer, 10 min, 37° C.",54.8 mol %
same,3-methylbutanal (mol %) generated from precursor,"[2]; pH 7 buffer, 60 min, 37° C.",97.9 mol %
same,3-methylbutanal (mol %) generated from precursor,"[2]; pH 9, Control without addition of buffer solution",0.3 mol %
same,3-methylbutanal (mol %) generated from precursor,"[2]; pH 9 buffer, 10 min, 37° C.",9.0 mol %
same,3-methylbutanal (mol %) generated from precursor,"[2]; pH 9 buffer, 60 min, 37° C.",35.7 mol %
same,malty note score against reference,"[3]; cold (10° C.) semi-skimmed milk, 11-point scale −5 to +5, reference at zero",3.6
same,malty note score against reference,"[3]; warm (60° C.) semi-skimmed milk (hot milk), scale −5 to +5, reference at zero",3.3
same,malty note score against reference,[4],3.5
same,"Theoretical release from spike, 3-methylbutanal (ug/vial)",[5],244 ug/vial
same,Yield of conversion of oxazoline to Strecker aldehyde,[5]; incubation 60° C./15 min,77%
same,"3-methylbutanal (ug/vial), sample spiked with oxazoline","[5]; incubation 60° C./15 min, non-spiked reference 28",215 ug/vial
same,malty note score against reference,[6]; 100 ml warm (60° C.) semi-skimmed milk,1.2
same,malty note score against reference,[6]; 100 ml warm (60° C.) water,1.7
